According to patent publication US20140100183A1, “CENTRAL ADMINISTRATION OF STABLE FORMULATIONS OF THERAPEUTIC AGENTS FOR CNS CONDITIONS” (The Regents of the University of Colorado, a body corporate, priority 2006, published 2014):
Structures can show the parent of a compound that is named as a salt. Where two headings read alike, the source gives them in different places. Marks after values point to notes of the source that are not given here.

Experiments:
[1] = test system: anxiety in rats (elevated plus maze, open field); experiment: Elevated plus maze and open field conflicts test after ICV antidepressants; format: in vivo, rat; conditions: for Rodent ICV dose: anxiety reduction; for % of Oral dose: rodent ICV dose vs human oral equivalent
Description: Various antidepressants were injected via ICV, and animals monitored in standard elevated plus maze and open field conflicts test.
Rats are placed in the center of a pluz-shaped maze. The arms are 13 cm wide; two arms were open and two are enclosed by 32 cm high walls. The maze is elevated off the flor by 51 cm. The percent of time and distance traveled in each type of arm over the 4 minute test period is calculated by computer. Increased time and distance traveled in the open arms is thought to reflect anxiolytic activity.
Rats are place against 1 side of a 104 cm square box with 32 cm sides. The activity of the rat is monitored by computer over a 4 minute testing period. A computer divides the openfied space into 25 equal squares arranged into an outer:ring” of 16 squares, a middle region of 8 squares and a central square. The percent of time and distarnce traveled in the center square by rats receiving the drug are calculated and compared to rats receiving a saline control. Increased time and distance traveled in the center square is thought to reflect anxiolytic activity.

human = conditions: effective daily dose, oral; cited from earlier work
[2] = cited from earlier work; for Comments: solubility: qualitative, solvents as given in the source
[3] = test system: patients diagnosed with psychotic disorders; experiment: ICV or cisterna magna treatment of psychotic disorders (Example 5); conditions: central administration, 0.01 to 0.1 mg per hour, 1 week
Description: A 5 mg/ml solution of the active agent is solubilized in aqueous solution using beta-hydroxypropyl cyclodextrin, made isotonic with NaCl, and the pH is maintained at 7.4 with 10 mM sodium phosphate. […] The stabilized solution is inserted into a fluid reservoir attached to a Medtronic Synchromed-II intrathecal delivery system. The stabilized formulation is intracerebroventricularly or cistema magna injected into patients diagnosed with psychotic disorders.
Injection is continuous, using a computerized pump to provide a delivery rate of 0.01 to 0.1 mg of the active agent per hour, depending on the severity of symptoms.

[4] = test system: pentylenetetrazole (PTZ) seizure induction in rats; experiment: Pentylenetetrazole (PTZ) seizure induction model, ICV administration; format: in vivo, rat; conditions: for % Change: drug group vs vehicle group (-V); for Rodent ICV dose: effective daily dose, blocking seizures; for Efficacy: effective in blocking seizures; for % of Oral dose: rodent ICV dose vs human oral equivalent
Description: Rats are anesthetized, placed in a stereotaxic instrument and a burr hole opened over one anterior lateral ventricle. A cannula is lowered to the ventricle and 5 μl of solution containing the drug is injected into the ventricle over 10 minutes. The incision is then closed and the animal allowed to regain consciousness and remain conscious for 10 minutes. After 10 minutes has elapsed, pentylenetetrazole (PTZ, 10 mg/ml in saline) is injected through a tail-vein catheter at a constant rate of infusion (1 ml/min, Razel syringe pump) until a motor seizure is induced. PTZ seizures are identified as myoclonic jerking followed by clonus and tonus. The time from the initial application of PTZ to the first clonic seizure (i.e., forelimb clonus) is measured and defined as “latency to seiqure onset”. The total amount of PTZ infused is calculated and then divided by each rat;s body weight to obtain the dose (mg/kg) of PTZ. The dose required to attain status epilepticus is compared to the PTZ dose without antiseizure medication.

[5] = test system: patients diagnosed with epilepsy disorders; experiment: ICV or cisterna magna treatment of epilepsy (Example 6); format: in vivo, human; conditions: central administration, 0.01 to 0.1 mg per hour, 1 week
Description: After 1 week of treatment, epileptic frequency is reduced.

[6] = test system: sensory inhibition deficits in DBA/2 mice; experiment: Sensory inhibition (paired auditory stimuli, TC ratio) after acute ICV administration; format: in vivo, mouse; conditions: 5 μg dose ICV
Description: The following methods were used to record the sensory inhibition.
The deficit in sensory inhibition can be quantified using the paired stimulus paradigm in which 2 identical stimuli are delivered 0.5 seconds apart and the electrophysiological response to each is recorded. In normal individuals, the response to the second, or test, stimulus, occurring 50 msec after stimulus onset, is reduced compared to the response to the first, or conditioning stimulus. However, schizophrenia patients have similar magnitude responses to both stimuli: The “TC ratio” is calculated by dividing the test amplitude by the conditioning amplitude. […] In normal individuals, the TC ratio is generally less than 0.4 while schizophrenia patients commonly have TC ratios above 0.5 and often approaching or exceeding 1.0.
In the present study, briefly, 5 baseline records were obtained in response to the paired auditory stimuli, prior to drug administration. […] Recordings were obtained at 5 minute intervals for 90 minutes post injection. Data analyzed included the amplitude of the response to the first stimulus (conditioning amplitude), amplitude of the response to the second stimulus (test amplitude) and the TC ratio (test amplitude/conditioning amplitude). This final parameter gives a measure of the level of inhibition in the circuit initiated by the conditioning stimulus. […] DBA/2 mice routinely have TC ratios of ≧0.8.

[7] = test system: primary mouse cortical neuron cultures; experiment: Toxicity in primary mouse cortical neuron cultures (MTT); conditions: 24 hours, 0.002% to 0.1% in culture media
Description: In addition, a preliminary assessment of the toxicity of cyclodextrin in primary mouse cortical neuron cultures was performed. […] After dissection, and cellular dissociation, the cells were washed with Dulbecco's Modified Eagle's Medium with 10% fetal bovine serum. Following recentrifugation, the cells resuspended in plating medium, counted with trypan blue and plated at a constant density of 6.5×10^4 cells per well in a 96-well pre-coated plate. […] The cultures were maintained at 37° C. in a humidified atmosphere of 5% CO2. […] The cultures were incubated and cell toxicity assayed at 24, 48 and 72 hours. Viability was assessed by the MTT (3-(4,5 diethylthiazol-2-yl)-2,5)diphenyltetrazolium bromide) assay, CellTiter 96 Non-radioactive cell Proliferation Assay (Promega, Madison Wis.) and by visual examination.

With `CNCCC(Oc1ccc(C(F)(F)F)cc1)c1ccccc1` (racemic) [Fluoxetine, (+/−)-N-Methyl-3-phenyl-3-(alpha,alpha,alpha-trifluoro-p-tolyloxy)propylamine hydrochloride] as the compound, how does the “Rodent ICV dose” value ([1]; estimated effective dose) read?
Its value is 0.74** mg/kg.

And the “% of Oral dose” value [1]?
The value was 224%.

And the Human oral equivalent (human)?
The Human oral equivalent was 0.33 mg/kg.

For `Cc1nnc2n1-c1ccc(Cl)cc1C(c1ccccc1)=NC2` [ALPRAZOLAM, 8-Chloro-1-methyl-6-phenyl-4H-s-triazolo(4,3-a) (1,4) benzodiazepine], which “Comments: solubility” value [2] is on record?
The value was “very slightly soluble in water”.

Which “Comments: solubility” value [2] does the source give for `Clc1ccc2c(c1)C(N1CCNCC1)=Nc1ccccc1O2` [AMOXAPINE, 2-Chloro-11-(1-piperazinyl)dibenz(b,f)(1,4) oxazepine] here?
Its value is “Soluble 1 in 460 of water, 1 in 15 of boiling water, 1 in 3 of alcohol, 1 in 45 of chloroform, 1 in 3 of ether, and 1 in 135 of benzene”.

Which Solubility in water ([2]; at 22 C.) does the source give for `CCN(CC)C(=S)SSC(=S)N(CC)CC` [ANTABUSE, bis (diethylthiocarbamoyl) disulfide] here?
The Solubility in water was “Soluble in water <0.1 g/100 mL at 22 C”.

Which “alleviation of psychotic symptoms” value [3] does the source give for `O=C1CCc2ccc(OCCCCN3CCN(c4cccc(Cl)c4Cl)CC3)cc2N1` [Aripiprazole] here?
Its value is “efficacious therapeutic alleviation of psychotic symptoms”.

Which “Comments: solubility” value [2] does the source give for `CC(NC(C)(C)C)C(=O)c1cccc(Cl)c1.Cl` (stereo not shown) [BUPROPION, 1-(3-chlorophenyl)-2-[(1,1-dimethylethyl)amino]-1-propanone hydrochloride] here?
The value was “freely soluble in water and soluble in alcohol and in chloroform”.

For `CCCCNc1cc(C(=O)O)cc(S(N)(=O)=O)c1Oc1ccccc1` [Bumex], which “% Change” value [4] is on record?
Its value is 90%.

And the “Rodent ICV dose” value [4]?
Its value is 0.000364 mg/kg.

And the Efficacy [4]?
Its Efficacy is “effective in blocking”.

What about the “% of Oral dose” value [4] of the same compound?
Its value is 1.1%.

What about the alleviation of seizures [5] of the same compound?
Its alleviation of seizures is “efficacious therapeutic alleviation of seizures”.

What about the Human oral equivalent (human) of the same compound?
The Human oral equivalent was 0.033 mg/kg.

For `CN(C)CCCN1c2ccccc2CCc2ccc(Cl)cc21` [Clomipramine, 3-(3-Chloro-10,11-dihydro-5H-dibenz[b,f]azepin-5-yl)propyldimethylamine hydrochloride], which “Rodent ICV dose” value ([1]; effective daily dose) is on record?
The value was 0.37 mg/kg.

What about the “% of Oral dose” value [1] of the same compound?
Its value is 8.8%.

What about the Human oral equivalent (human) of the same compound?
The Human oral equivalent was 4.16 mg/kg.

Which “Comments: solubility” value [2] does the source give for `CCN(CC)CCN1C(=O)CN=C(c2ccccc2F)c2cc(Cl)ccc21` [FLURAZEPAM, 7-chloro-1-[2-(diethylamino)ethyl]-5-(o-fluorophenyl)-1,3-dihydro-2H-1,4-benzodiazepin-2-one dihydrochloride] here?
The value was “Soluble in water, in alcohol, and in 0.1N hydrochloric acid”.

For `O=C(CCCN1CCC(O)(c2ccc(Cl)cc2)CC1)c1ccc(F)cc1` [HALOPERIDOL, 4-[4-(p-chlorophenyl)-4-hydroxypiperidino]-4′-fluorobutyrophenone], which “Comments: solubility” value [2] is on record?
The value was “sparingly soluble in water and soluble in ethanol”.

With `OCCOCCN1CCN(C(c2ccccc2)c2ccc(Cl)cc2)CC1` (stereo not shown) [HYDROXYZINE, 2-[2-[4-(p-chlorobenzhydryl)-1-piperazinyl]ethoxy]ethanol dihydrochloride.] as the compound, how does the “Comments: solubility” value [2] read?
The value was “slightly soluble in water and isopropyl alcohol, sparingly soluble in ethanol”.

With `CN(C)CCCN1c2ccccc2CCc2ccccc21` [IMIPRAMINE, 10,11-dihydro-N,N-dimethyl-5H-Dibenz[b,f]azepine-5-propanamine] as the compound, how does the “Comments: solubility” value [2] read?
The value was “insoluble in the common organic solvents, but very soluble in water”.

Which “Comments: solubility” value [2] does the source give for `CC1=CC(=O)N2CC(=O)N(C)c3ccc(Cl)cc3C2(c2ccccc2)O1` (stereo not shown) [KETAZOLAM, 11-Chloro-8,12b-dihydro-2,8-dimethyl-12b-phenyl-4H-[1,3]oxazino[3,2-d][1,4]benzodiazepine-4,7(6H)-dione] here?
The value was “Practically insoluble in water; slightly soluble in alcohol; freely soluble in chloroform”.

With `[Li]` [LITHIUM] as the compound, how does the Solubility in water ([2]; at 22 C.) read?
Its Solubility in water is “water 0.1-0.5 g/100 mL”.

With `O=C1Nc2ccc(Cl)cc2C(c2ccccc2Cl)=NC1O` (stereo not shown) [LOREZAPAM, 7-chloro-5-(0-chlorophenyl)-1,3-dihydro-3-hydroxy-2H-1,4-benzo-diazepin-2-one] as the compound, how does the “Comments: solubility” value [2] read?
Its value is “Very soluble in organic solvents”.

Which Human oral equivalent (human) does the source give for `Nc1nnc(-c2cccc(Cl)c2Cl)c(N)n1` [Lamictal] here?
Its Human oral equivalent is 3.33 mg/kg.

Which “Comments: solubility” value [2] does the source give for `CCC(=O)C(CC(C)N(C)C)(c1ccccc1)c1ccccc1` (stereo not shown) [METHADONE, 1,1-Diphenyl-1-(2-dimethylaminopropyl)-2-butanone] here?
Its value is “Soluble in water; freely soluble in alcohol and in chloroform; practically insoluble in ether and in glycerol”.

For `C=CCN1CC[C@]23c4c5ccc(O)c4O[C@H]2C(=O)CC[C@@]3(O)[C@H]1C5` [NALOXONE, (−)-17-Allyl-4, 5α-epoxy-3,14-dihydroxymorphinan-6-one hydrochloride], which “Comments: solubility” value [2] is on record?
The value was “freely soluble in USP alcohol and very soluble in water”.

Which Solubility in water ([2]; at 25 C.) does the source give for `CCc1nn(CCCN2CCN(c3cccc(Cl)c3)CC2)c(=O)n1CCOc1ccccc1` [NEFAZODONE, 2-(3-(4-(3-chlorophenyl)-1-piperazinyl)propyl)-5-ethyl-2,4-dihydro-4-(2-phenoxyethyl)-3H-1,2,4-triazol-3-one] here?
The Solubility in water was “Soluble in water <0.1 g/100 mL at 25 C”.

For `O=C1CN=C(c2ccccc2)c2cc([N+](=O)[O-])ccc2N1` [NITRAZEPAM, 1,3-Dihydro-7-nitro-5-phenyl-2H-1,4-benzodiazepin-2-one], which “Comments: solubility” value [2] is on record?
The value was “Soluble 1 in 12 of water, 1 in 14 of alcohol, and 1 in 3.5 of chloroform; insoluble in ether; freely soluble in methyl alcohol”.

With `NC(=O)N1c2ccccc2CC(=O)c2ccccc21` [OXCARBAZEPINE, 10,11-Dihydro-10-oxo-5H-dibenz[b,f]azepine-5-carboxamide] as the compound, how does the “Comments: solubility” value [2] read?
The value was “Freely soluble in water, in alcohol, and in dichloromethane”.

Which alleviation of seizures [5] does the source give for `O=C1NC(=O)C(c2ccccc2)(c2ccccc2)N1` [PHENYTOIN, 5,5-diphenyl-2,4-imidazolidinedione] here?
The alleviation of seizures was “efficacious therapeutic alleviation of seizures”.

And the “Comments: solubility” value [2]?
The value was “Very soluble in water”.

Which Solubility in water [2] does the source give for `COc1cc2nc(N3CCN(C(=O)c4ccco4)CC3)nc(N)c2cc1OC.Cl` [PRAZOSIN, 2-[4-(2-Furoyl)piperazin-1-yl]-6,7 dimethoxyquinazolin-4-ylamine hydrochloride] here?
Its Solubility in water is “very slightly soluble in water (<1 mg/ml) and readily soluble in organic solvents such as ethanol and acetone”.

What about the “Comments: solubility” value [2] of the same compound?
Its value is “very slightly soluble in water (<1 mg/ml) and readily soluble in organic solvents such as ethanol and acetone”.

Which “Comments: solubility” value [2] does the source give for `CC(C)NCC(O)COc1cccc2ccccc12.Cl` (stereo not shown) [PROPRANOLOL, 1-(Isopropylamino)-3-(1-naphthyloxy)-2-propanol hydrochloride] here?
Its value is “soluble in methanol or ethanol but which has no appreciable solubility in water at physiological pH”.

Which “Rodent ICV dose” value ([1]; effective daily dose) does the source give for `NNCCc1ccccc1` [Phenelzine, 2-Phenylethylhydrazine] here?
The value was 1.8 mg/kg.

What about the “efficacy following ICV administration” value ([1]; elevated plus maze and open field conflicts test) of the same compound?
Its value is “efficacy”.

What about the Efficacy ([1]; rat, in vivo) of the same compound?
The Efficacy was “anxiety reduction”.

And the “% of Oral dose” value [1]?
The value was 120%.

And the Human oral equivalent (human)?
The Human oral equivalent was 1.5 mg/kg.

For `O=C(O)c1ccccc1O` [SALICYLIC ACID, 2-Hydroxybenzoic acid], which “Comments: solubility” value [2] is on record?
The value was “almost insoluble in water”.

For `CN1CCN(CC/C=C2/c3ccccc3Sc3ccc(S(=O)(=O)N(C)C)cc32)CC1` [THIOTHIXINE, cis isomer of N,N-dimethyl-9-[…]3-(4-methyl-1-piperazinyl)-propylidene[…] thioxanthene-2-sulfonamide.], which “Comments: solubility” value [2] is on record?
The value was “Slightly soluble in water; soluble in alcohol and in methyl alcohol”.

For `Cl.O=c1n(CCCN2CCN(c3cccc(Cl)c3)CC2)nc2ccccn12` [TRAZODONE], which Solubility in water ([2]; at 20 C.) is on record?
The Solubility in water was “insoluble in water <0.1 g/100 mL at 20 C”.

Which “Comments: solubility” value [2] does the source give for `Cc1nnc2n1-c1ccc(Cl)cc1C(c1ccccc1Cl)=NC2` [TRIAZOLAM, 8-chloro-6-(o-chlorophenyl)-1-methyl-4H-s-triazolo-(4,3-alpha)(1,4) benzodiazepine] here?
Its value is “practically insoluble in water and soluble in alcohol and in acetone”.

What does the source list for `NC(=O)N1c2ccccc2C=Cc2ccccc21` [Tegretol, 5H-dibenz[b,f]azepine-5-carboxamide]?
% Change [4]: 60%; Rodent ICV dose [4]: 0.00888 mg/kg; Efficacy [4]: effective in blocking; % of Oral dose [4]: 0.13%; alleviation of seizures [5]: efficacious therapeutic alleviation of seizures; Human oral equivalent (human): 6.66 mg/kg; Comments: solubility [2]: Slightly soluble in water and in alcohol

Which Human oral equivalent (human) does the source give for `CCCC(CCC)C(=O)O` [Valproate, 2-Propylpentanoic acid] here?
The Human oral equivalent was 1 mg/kg.

For `Cc1nccn1CC1CCc2c(c3ccccc3n2C)C1=O` (stereo not shown) [ondansetron], which TC ratio [6] is on record?
Its TC ratio is “significantly reduced TC ratios”.

With “(−)-trans-4R-(4′- fluorophenyl)-3S-((3′,4′- methylenedioxyphenoxy) methyl)piperidine [PAROXETINE]” as the compound, how does the “Comments: solubility” value [2] read?
The value was “soluble in alcohol and poorly soluble in water”.

For cyclodextrin, which “toxicity of cyclodextrin alone” value [7] is on record?
The value was “no toxicity”.
